Assay results reported in patent US11498928B2, “Macrocyclic spiroethers as Mcl-1 inhibitors” (ASCENTAGE PHARMA (SUZHOU) CO., LTD., priority 2019, dated 2022).

How the values were obtained:
NCI-H929 cells = experiment: Cell viability assay (NCI-H929 cells), CCK-8; format: cell-based; details: 5% FBS
Procedure, shortened: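 NCI-H929 cells from ATCC were seeded at 20000 cells/well in 95 μL of culture medium in 96-well plates and grown for 4 hrs. Compounds, serially diluted in DMSO and further diluted in medium, were added as 5 μL, and cells were incubated for 24 hrs at 37° C. with 5% CO2. Viability was measured with CCK-8.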

OPM-2 cells = experiment: Cell viability assay (OPM-2 cells), CCK-8; format: cell-based; details: 5% FBS
Procedure, shortened: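 OPM-2 myeloma cells (20000/well) exposed to serially diluted compound for 24 h at 37 °C, 5% CO2, then incubated 4 h with CCK-8 and read at 450 nm. Readings normalized to vehicle; IC50 from nonlinear regression.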

[1] = molecular target: T1, Mcl-1 protein (residues 171-323) (Homo sapiens, UniProt Q07820); experiment: Inhibition of Mcl-1 by fluorescence polarization (FP) competitive binding assay with FAM-Bid tracer; details: 2 nM FAM-Bid, 20 nM Mcl-1, 30 min
T1 construct: Tag-free Mcl-1 protein (residues 171-323) was used in the FP assay
Procedure, shortened: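 Tag-free Mcl-1 (20 nM) with 2 nM FAM-Bid peptide in PBS, 0.01% BGG, 0.01% Triton X-100, 5% DMSO, 30 min at room temperature. FP read at Ex 485/Em 528 nm. IC50 from 10-point curves normalised to DMSO and no-protein controls.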

T1 sequence (Q07820 171-323): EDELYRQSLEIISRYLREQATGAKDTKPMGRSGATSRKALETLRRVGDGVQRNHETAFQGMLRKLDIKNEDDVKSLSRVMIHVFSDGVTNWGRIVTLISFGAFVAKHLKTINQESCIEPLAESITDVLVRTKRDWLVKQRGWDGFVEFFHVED

SMILES	IC50 (NCI-H929 cells; Homo sapiens, NCI-H929, 24 h)	IC50 (OPM-2 cells; Homo sapiens, OPM-2, 24 h)	IC50 [1]	IC50 (NCI-H929 cells; 24 h)	IC50 (OPM-2 cells; 24 h)
C[C@@H]1[C@@H](C)S(=O)(=O)NC(=O)c2ccc3c(c2)N(C[C@@H]2CC[C@H]2[C@](O)(CN2CCN4CCOC[C@@H]4C2)C2=C[C@H]1C2)C[C@@]1(CCCc2c1ccc(Cl)c2F)CO3 [compound 47, (1S,11′R,12′S,13′R,16′R,16a′R,18a′R,E)-6-chloro-5-fluoro-16′-(((S)-hexahydropyrazino[2,1-c][1,4]oxazin-8(1H)-yl)methyl)-16′-hydroxy-11′,12′-dimethyl-3,4,12,′13′,16′,16a′,17′,18′,18a′,19′-decahydro-1′H,2H,3′H,11′H-spiro[naphthalene-1,2′-[5,7]etheno[13,15]methanocyclobuta[i][1,4]oxazepino[3,4-f][1]thia[2,7]diazacyclohexadecin]-8′(9′H)-one 10′,10′-dioxide]	5.8 nM	32 nM	13 nM		
CO[C@H]1C2=CC(C2)[C@H](C)CS(=O)(=O)NC(=O)c2ccc3c(c2)N(C[C@@H]2CC[C@H]21)C[C@@]1(CCCc2cc(Cl)ccc21)CO3 (single isomer, unassigned) [Cpd. No. 14 (Isomer 2)]			11 nM	150 nM	1310 nM
C[C@@H]1[C@@H](C)S(=O)(=O)NC(=O)c2ccc3c(c2)N(C[C@@H]2CC[C@H]2[C@@H](N(C)C)C2=C[C@H]1C2)C[C@@]1(CCCc2c1ccc(Cl)c2F)CO3 [compound 57, (1S,11′R,12′S,13′R,16′R,16a′R,18a′R)-6-chloro-16′-(dimethylamino)-5-fluoro-11′,12′-dimethyl-3,4,12′,13′,16′,16a′,17′,18′,18a′,19′-decahydro-1′H,2H,3′H,11′H-spiro[naphthalene-1,2′-[5,7]etheno[13,15]methanocyclobuta[i][1,4]oxazepino[3,4-f][1]thia[2,7]diazacyclohexadecin]-8′(9′H)-one 10′,10′-dioxide]	43 nM	36 nM	13 nM		
CO[C@H]1C2=CC(C2)[C@H](C)[C@@H](C)S(=O)(=O)NC(=O)c2ccc3c(c2)N(C[C@@H]2CC[C@H]21)C[C@@]1(CCCc2c1cc(F)c(Cl)c2F)CO3 (single isomer, unassigned) [Cpd. No. 19]	670 nM	802 nM	19 nM		
CC[C@@H]1CS(=O)(=O)NC(=O)c2ccc3c(c2)N(C[C@@H]2CC[C@H]2[C@@H](OC)C2=CC1C2)C[C@@]1(CCCc2cc(Cl)ccc21)CO3 (single isomer, unassigned) [Cpd. No. 10 (Isomer 2)]			4.9 nM	780 nM	1130 nM
CO[C@@H]1C2=CC(C2)C(C)(C)CS(=O)(=O)NC(=O)c2ccc3c(c2)N(C[C@@H]2CC[C@H]21)C[C@@]1(CCCc2cc(Cl)ccc21)CO3 (single isomer, unassigned) [Cpd. No. 6 (Isomer 1)]			5.2 nM	870 nM	1300 nM
CO[C@@H]1C2=CC(C2)C(C)(C)CS(=O)(=O)NC(=O)c2ccc3c(c2)N(C[C@@H]2CC[C@H]21)C[C@@]1(CCCc2cc(Cl)ccc21)CO3 (single isomer, unassigned) [Cpd. No. 6 (Isomer 2)]			6.3 nM	3400 nM	2870 nM
CO[C@@H]1C2=CC(C2)CC(C)S(=O)(=O)NC(=O)c2ccc3c(c2)N(C[C@@H]2CC[C@H]21)C[C@@]1(CCCc2cc(Cl)ccc21)CO3 (mixture of isomers) [7 (mixture)]	2300 nM	5580 nM	5.1 nM		
C[C@@H]1[C@@H](C)S(=O)(=O)NC(=O)c2ccc3c(c2)N(C[C@@H]2CC[C@H]2[C@@H](OCC(=O)O)C2=C[C@H]1C2)C[C@@]1(CCCc2c1ccc(Cl)c2F)CO3 [compound 74, 2-(((1S,11′R,12′S,13′R,16′R,16a′R,18a′R,E)-6-chloro-5-fluoro-11′,12′-dimethyl-10′,10′-dioxido-8′-oxo-3,4,8′,9′,12′,13′,16′,16a′,17′,18′,18a′,19′-dodecahydro-1′H,2H,3′H,11′H-spiro[naphthalene-1,2′-[5,7]etheno[13,15]methanocyclobuta[i][1,4]oxazepino[3,4-f][1]thia[2,7]diazacyclohexadecin]-16′-yl)oxy)acetic acid]	450 nM	384 nM	20 nM		
C[C@@H]1[C@@H](C)S(=O)(=O)NC(=O)c2ccc3c(c2)N(C[C@@H]2CC[C@H]2[C@@H](OCC(=O)N(C)C)C2=C[C@H]1C2)C[C@@]1(CCCc2c1ccc(Cl)c2F)CO3 [compound 64, 2-(((1 S, 11′R,12′S,13′R,16′R,16a′R,18a′R,E)-6-chloro-5-fluoro-11′,12′-dimethyl-10′,10′-dioxido-8′-oxo-3,4,8′,9′,12′,13′,16′,16a′,17′,18′,18a′,19′-dodecahydro-1′H,2H,3′H, 11′H-spiro[naphthalene-1,2′-[5,7]etheno[13,15]methanocyclobuta[i][1,4]oxazepino[3,4-f][1]thia[2,7]diazacyclohexadecin]-16′-yl)oxy)-N,N-dimethylacetamide]	9.4 nM	120 nM	14 nM		
CO[C@H]1C2=CC(C2)[C@H](C)N(C)S(=O)(=O)NC(=O)c2ccc3c(c2)N(C[C@@H]2CC[C@H]21)C[C@@]1(CCCc2cc(Cl)ccc21)CO3 (single isomer, unassigned) [26 (isomer 2)]			3.3 nM	2260 nM	2240 nM
CO[C@@H]1C2=CC(C2)CC(C)S(=O)(=O)NC(=O)c2ccc3c(c2)N(C[C@@H]2CC[C@H]21)C[C@@]1(CCCc2cc(Cl)ccc21)CO3 (single isomer, unassigned) [7 (Isomer 2)]			4.2 nM	1900 nM	2960 nM
C[C@@H]1[C@@H](C)S(=O)(=O)NC(=O)c2ccc3c(c2)N(C[C@@H]2CC[C@H]2[C@@H](OCCN(C)C)C2=C[C@H]1C2)C[C@@]1(CCCc2c1ccc(Cl)c2F)CO3 [compound 77, (1S,11′R,12′S,13′R,16′R,16a′R,18a′R,E)-6-chloro-16′-(2-(dimethylamino)ethoxy)-5-fluoro-11′,12′-dimethyl-3,4,12′,13′,16′,16a′,17′,18′,18a′,19′-decahydro-1′H,2H,3′H,1 PH-spiro[naphthalene-1,2′-[5,7]etheno[13,15]methanocyclobuta[i][1,4]oxazepino[3,4-f][1]thia[2,7]diazacyclohexadecin]-8′(9′H)-one 10′,10′-dioxide]	5.3 nM	68 nM	8.5 nM		
C[C@@H]1[C@@H](C)S(=O)(=O)NC(=O)c2ccc3c(c2)N(C[C@@H]2CC[C@H]2[C@@H](OCC2CCN(C)CC2)C2=C[C@H]1C2)C[C@@]1(CCCc2c1ccc(Cl)c2F)CO3 [compound 71]	6 nM	81 nM	13 nM		
C[C@@H]1[C@@H](C)S(=O)(=O)NC(=O)c2ccc3c(c2)N(C[C@@H]2CC[C@H]2[C@@H](OCc2nccn2C)C2=C[C@H]1C2)C[C@@]1(CCCc2c1ccc(Cl)c2F)CO3 [compound 63, (1S,11′R,12′S,13′R,16′R,16a′R,18a′R,E)-6-chloro-5-fluoro-11′,12′-dimethyl-16′-((1-methyl-1H-imidazol-2-yl)methoxy)-3,4,12′,13′,16′,16a′,17′,18′,18a′,19′-decahydro-1′H,2H,3′H, 11′H-spiro[naphthalene-1,2′-[5,7]etheno[13,15]methanocyclobuta[i][1,4]oxazepino[3,4-f][1]thia[2,7]diazacyclohexadecin]-8′(9′H)-one 10′,10′-dioxide]	98 nM	88 nM	13 nM		
CO[C@@]1(CN2CCN(C(C)=O)CC2)C2=C[C@@H](C2)[C@H](C)[C@@H](C)S(=O)(=O)NC(=O)c2ccc3c(c2)N(C[C@@H]2CC[C@H]21)C[C@@]1(CCCc2c1ccc(Cl)c2F)CO3 [compound 49]	12 nM	186 nM	11 nM		
C[C@@H]1[C@@H](C)S(=O)(=O)NC(=O)c2ccc3c(c2)N(C[C@@H]2CC[C@H]2[C@@H](OCCN2C[C@@H](C)O[C@@H](C)C2)C2=C[C@H]1C2)C[C@@]1(CCCc2c1ccc(Cl)c2F)CO3 [compound 82, (1S,11′R,12′S,13′R,16′R,16a′R,18a′R,E)-6-chloro-16′-(2-((2S,6R)-2,6-dimethylmorpholino)ethoxy)-5-fluoro-11′,12′-dimethyl-3,4,12′,13′,16′,16a′,17′,18′,18a′,19′-decahydro-1′H,2H,3′H,11′H-spiro[naphthalene-1,2′-[5,7]etheno[13,15]methanocyclobuta[i][1,4]oxazepino[3,4-f][1]thia[2,7]diazacyclohexadecin]-8′(9′H)-one 10′,10′-dioxide]	56 nM	54 nM	31 nM		
C[C@@H]1[C@@H](C)S(=O)(=O)NC(=O)c2ccc3c(c2)N(C[C@@H]2CC[C@H]2[C@@H](OCCN2CCOCC2)C2=C[C@H]1C2)C[C@@]1(CCCc2c1ccc(Cl)c2F)CO3 [compound 59, (1S,11′R,12′S,13′R,16′R,16a′R,18a′R,E)-6-chloro-5-fluoro-11′,12′-dimethyl-16′-(2-morpholinoethoxy)-3,4,12′,13′,16′,16a′,17′,18′,18a′,19′-decahydro-1′H,2H,3′H,11′H-spiro[naphthalene-1,2′-[5,7]etheno[13,15]methanocyclobuta[i][1,4]oxazepino[3,4-f][1]thia[2,7]diazacyclohexadecin]-8′(9′H)-one 10′,10′-dioxide]	4.1 nM	37 nM	13 nM		
